Values belong to the molecule of their own block, whether it stands above or below them.
Assays:
[1] = system: S. mutans GapN; conditions: ref Crow and Wittenberger, 1979; cited from earlier work
Text: E4P and phosphohydroxypyruvate were also described to inhibit GapN extracted from pea shoots, maize leaf and the green algae Chlamydomonas reinhardtii ([Kelly and Gibbs, 1973]; [Iglesias et al., 1987]). E4P and S7P are produced in the non-oxidative part of the PPP ([Stincone et al., 2015]), which is present in S. pyogenes. Thus, they could play a role in the in vivo regulation of the enzyme. […] ATP is generated during glycolysis, which provides most of the energy in S. pyogenes.

[2] = biological target: T1, S. pyogenes GapN (Streptococcus pyogenes, UniProt Q99Z67); test: Activity of purified GapN (NADP+ reduction, absorption at 340 nm); assay type: biochemical, S. pyogenes M49 strain 591
T1 sequence (Q99Z67 1-475): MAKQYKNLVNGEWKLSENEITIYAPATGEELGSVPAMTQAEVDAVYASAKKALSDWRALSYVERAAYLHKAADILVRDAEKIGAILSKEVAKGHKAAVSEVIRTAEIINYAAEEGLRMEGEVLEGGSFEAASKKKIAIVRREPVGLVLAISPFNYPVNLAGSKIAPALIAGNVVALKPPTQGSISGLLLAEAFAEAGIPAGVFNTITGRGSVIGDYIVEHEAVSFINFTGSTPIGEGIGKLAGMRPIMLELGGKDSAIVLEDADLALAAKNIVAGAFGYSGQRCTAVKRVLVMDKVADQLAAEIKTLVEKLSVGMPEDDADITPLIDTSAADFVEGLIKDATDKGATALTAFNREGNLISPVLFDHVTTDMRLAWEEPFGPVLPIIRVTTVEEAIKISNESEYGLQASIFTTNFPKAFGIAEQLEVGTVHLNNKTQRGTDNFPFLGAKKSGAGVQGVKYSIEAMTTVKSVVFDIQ

[3] = system: S. pyogenes GapN; conditions: ref Iddar et al., 2003; cited from earlier work
Text: The non-phosphorylating glyceraldehyde-3-phosphate dehydrogenase GapN has been predicted to be an essential enzyme in S. pyogenes M49 based on gene essentiality analyses via transposon mutant libraries ([Le Breton et al., 2015]).

[4] = biological target: non-phosphorylating glyceraldehyde-3-phosphate dehydrogenase GapN of S. pyogenes M49 strain 591 (wild type) (S. pyogenes M49 strain 591); test: SEC-MALS; HiLoad 16/600 Superdex 200 pg, room temperature, 1 x PBS pH 7.4, 0.5 ml/min; oligomeric state in solution
[5] = substrate: O=CC(O)COP(=O)(O)O; test: purified protein, by the assay type; assay type: biochemical, S. pyogenes M49 strain 591; conditions: other: Strep-tagged GapN; ± standard error printed (0.05 NADP; 0.19 DL-G3P)

Molecule: O=C(CO)[C@@H](O)[C@H](O)[C@H](O)[C@H](O)COP(=O)(O)O [S7P, sedoheptulose 7-phosphate]
Effect on S. mutans GapN activity [1]: inhibitory effects
Effect on specific activity of purified GapN ([2]; added to standard assay: 25 mM salts, 10 mM sugars/pyruvate, 2 mM S7P, 0.4 mM NADH or NADPH, n = 4, one-way ANOVA): does not inhibit

Molecule: Nc1ncnc2c1ncn2[C@@H]1O[C@H](COP(=O)(O)OP(=O)(O)OP(=O)(O)O)[C@@H](O)[C@H]1O [ATP]
Effect on S. mutans GapN activity [1]: inhibited by ATP to some extent
Reduction of the activity of purified GapN ([2]; 10 mM ATP added to standard assay (10 mM NADP+, 2 mM DL-G3P, pH 8.5), n = 4): 50%

Molecule: O=C[C@H](O)[C@H](O)COP(=O)(O)O [E4P, erythrose 4-phosphate]
Effect on S. mutans GapN activity [1]: inhibitory effects
Reduction of the activity of purified GapN ([2]; 2 mM E4P added to standard assay (10 mM NADP+, 2 mM DL-G3P, pH 8.5), n = 4): 90%
Specific GapN activity relative to standard assay mix ([2]; in the presence of 2 mM E4P, mean ± SD, n = 4): 10.8 ± 1.9%

Molecule: O=CC(O)COP(=O)(O)O (stereo not drawn) [G3P, glyceraldehyde 3-phosphate]
Km [3]: 666 µM

Molecule: NADP
Km [3]: 385 µM

stoichiometry N [4]: 4
Molecule: non-phosphorylating glyceraldehyde-3-phosphate dehydrogenase GapN of S. pyogenes M49 strain 591 (wild type) (enzyme)

Molecule: O=C(O)C(=O)COP(=O)(O)O [phosphohydroxypyruvate]
Effect on S. mutans GapN activity [1]: inhibitory effects

B1: S. pyogenes GapN (Streptococcus pyogenes serotype M1) (protein)
chain: MAKQYKNLVNGEWKLSENEITIYAPATGEELGSVPAMTQAEVDAVYASAKKALSDWRALSYVERAAYLHKAADILVRDAEKIGAILSKEVAKGHKAAVSEVIRTAEIINYAAEEGLRMEGEVLEGGSFEAASKKKIAIVRREPVGLVLAISPFNYPVNLAGSKIAPALIAGNVVALKPPTQGSISGLLLAEAFAEAGIPAGVFNTITGRGSVIGDYIVEHEAVSFINFTGSTPIGEGIGKLAGMRPIMLELGGKDSAIVLEDADLALAAKNIVAGAFGYSGQRCTAVKRVLVMDKVADQLAAEIKTLVEKLSVGMPEDDADITPLIDTSAADFVEGLIKDATDKGATALTAFNREGNLISPVLFDHVTTDMRLAWEEPFGPVLPIIRVTTVEEAIKISNESEYGLQASIFTTNFPKAFGIAEQLEVGTVHLNNKTQRGTDNFPFLGAKKSGAGVQGVKYSIEAMTTVKSVVFDIQ
Km [5]: 580 µM

Reference: article PMC8886048, “The Non-phosphorylating Glyceraldehyde-3-Phosphate Dehydrogenase GapN Is a Potential New Drug Target in Streptococcus pyogenes” (Frontiers in Microbiology, 2022)
